Results published in ChEMBL document CHEMBL5360581, “Discovery of a novel dual functional phenylpyrazole-styryl hybrid that induces apoptotic and autophagic cell death in bladder cancer cells” (Eur J Med Chem, 2023).
The source made the active and inactive calls. No cut-off for these calls is given here.

How the values were obtained:
[1] = Toxicity in Zebrafish embryo assessed as oedema at 12.5 uM administered for 4 hrs post fertilization and measured after 3 days post fertilization; design: species or system Danio rerio; conditions: in vivo, 72 h, time 3 day
[2] = Toxicity in Zebrafish embryo assessed as adverse phenotype at 12.5 to 50 uM administered for 4 hrs post fertilization and measured after 6 days post fertilization; design: species or system Danio rerio; conditions: in vivo, 144 h, dose 12.5-50 µM, time 6 day
EJ-28 [3] = assay: Induction of autophagy in human EJ-28 cells assessed as increase in green fluorescence intensity at 5 to 12.5 uM incubated for 24 hrs by flow cytometry analysis; assay type: functional, cell-based; conditions: dose 5-12.5 µM
EJ-28 [4] = assay: Induction of ROS generation in human EJ-28 cells at 1.25 to 10 uM incubated for 48 hrs by DCFDA staining based flow cytometry analysis; assay type: functional, cell-based; conditions: dose 1.25-10 µM
EJ-28 [5] = assay: Induction of autophagy in human EJ-28 cells assessed as upregulation of Beclin-1 expression at 5 to 12.5 uM incubated for 24 to 72 hrs by Western blot analysis; assay type: functional, cell-based; conditions: dose 5-12.5 µM, time 24-72 hrs
EJ-28 [6] = assay: Anticancer activity against human EJ-28 cells cultured as 3D spheroids at 2.5 to 20 uM measured upto 5 days by PI/Hoechst 33342 staining based fluorescence microscopic analysis; assay type: functional, cell-based; conditions: dose 2.5-20 µM, time <= 5.0 day
EJ-28 [7] = assay: Induction of cell cycle arrest in human EJ-28 cells assessed as accumulation of cells at sub-G0/G1 phase at 5 uM incubated for 48 hrs by propidium iodide staining based flow cytometry (reference value: 48%); assay type: functional
EJ-28 [8] = assay: Inhibition of colony formation in human EJ-28 cells at 2.5 to 10 uM incubated for 10 days by crystal violet staining based assay; assay type: functional, cell-based; conditions: dose 2.5-10 µM, time 10.0 day
EJ-28 [9] = assay: Induction of autophagy in human EJ-28 cells assessed as upregulation of Atg5 expression at 5 to 12.5 uM incubated for 24 to 72 hrs by Western blot analysis; assay type: functional, cell-based; conditions: dose 5-12.5 µM, time 24-72 hrs
EJ-28 [10] = assay: Induction of autophagy in human EJ-28 cells assessed as upregulation of LC3B-I expression at 5 to 12.5 uM incubated for 24 to 72 hrs by Western blot analysis; assay type: functional, cell-based; conditions: dose 5-12.5 µM, time 24-72 hrs
T-24 = assay: Induction of morphological changes in human T24 cells assessed as intracellular vacuolization at 7.5 uM incubated for 48 hrs by microscopic analysis; assay type: functional, cell-based
EJ-28 [11] = assay: Induction of apoptosis in human EJ-28 cells assessed as upregulation of NOXA expression incubated for 24 hrs by Western blotting analysis; assay type: functional, cell-based

Question: For `O=[N+]([O-])c1cccc(/C=C/c2cc(-c3cc(Cl)ccc3O)n(-c3ccccc3)n2)c1`, which Activity [1] is on record?
Answer: The Activity was “Non-Toxic”.

Question: And the Activity [2]?
Answer: Its Activity is “Non-Toxic”.

Question: What about the Activity (EJ-28 [3]) of the same molecule?
Answer: The Activity was “Active”.

Question: What about the Activity (EJ-28 [4]) of the same molecule?
Answer: Its Activity is “inactive”.

Question: And the Activity (EJ-28 [5])?
Answer: The Activity was “inactive”.

Question: And the Activity (EJ-28 [6])?
Answer: The Activity was “Active”.

Question: And the Activity (EJ-28 [7])?
Answer: The Activity was 58%.

Question: And the inhibition (EJ-28 [8])?
Answer: Its inhibition is “Active”.

Question: And the Activity (EJ-28 [9])?
Answer: Its Activity is “Active”.

Question: What about the Activity (EJ-28 [10]) of the same molecule?
Answer: Its Activity is “Active”.

Question: And the Activity (T-24)?
Answer: The Activity was “Active”.

Question: And the Activity (EJ-28 [11])?
Answer: Its Activity is “Active”.
